Data from PMC11042424, “Development of a First-in-Class RIPK1 Degrader to Enhance Antitumor Immunity” (Research Square, 2024).

Key:
[1] = test system: B16F10 cells; assay: TNFα-mediated apoptosis in B16F10 cells; format: cell-based, mouse; conditions: 1 μM, TNFα 100 ng/mL, 72 hours
Excerpt: Figure 3 LD4172 sensitizes B16F10 cells to TNFα-mediated apoptosis. A, Representative flow cytometry dot plots of apoptosis. In all four plots, viable cells are seen in the left lower quadrant (FITC-/PI-), early apoptotic cells in the right lower quadrant (FITC+/PI-), and late apoptotic cells in the right upper quadrant (FITC+/PI+). B, Representative images of PI (red) and caspase 3/7 (Cas3/7+, green) staining of B16F10 cells. Cell death assessed by PI uptake using Cytation 5 imager. C, Western blots for the expression of cleaved caspase3, cleaved caspase7, and cleaved PARP in B16F10 cells. D, Quantification of extracellular ATP level. Western blots for the expression of HMGB1 and calreticulin in B16F10 cells. E, Immunofluorescence staining of HMGB1 in B16F10 cells. B16F10 cells were treated in the presence or absence of TNFα (100 ng/mL), Z-VAD-FMK (25 μM), LD4172 (1 μM), and/or T2I (1 μM) as indicated for 72 hours. Data are representative of three independent experiments. Error bars represent SD.
Apoptosis quantification was conducted utilizing a FITC-conjugated Annexin V/PI assay kit (556547, BD Biosciences) and analyzed through flow cytometry. Briefly, 2×10^5 of B16F10 cells were seeded onto six-well plates and treated as specified for 72 hours at 37°C. Treated and untreated cells were harvested, washed with PBS, and resuspended in 100 μl of binding buffer. […]

[2] = test system: B16F10 tumors; assay: B16F10 syngeneic tumor model with anti-PD1; format: in vivo; conditions: B16F10 tumors; 20 mg/kg i.p. daily plus anti-PD1 100 μg i.p. every three days
Method: Figure 4 LD4172 synergizes with Anti-PD1 to inhibit tumor growth. A, Plasma concentrations of LD4172 in C57BL/6J mice administered 1 mg/kg intravenously (i.v.) or 10 mg/kg intraperitoneally (i.p.) (n=4). B, Representative immunoblots of RIPK1 in different tissues of C57BL/6J mice treated with LD4172 (n=3–4). C, Densitometric analysis of RIPK1 protein levels in different tissues (n=3 or 4). D, Representative immunoblots of RIPK1 levels of B16F10 cells transduced with gRNA specific for RIPK1 or non-targetable control (sgNC). E, B16F10-RIPK1-KO tumors sensitized to anti-PD1 treatment: 3×10^5 B16F10 cells transduced with gRNA specific for RIPK1 or non-targetable control (sgNC) were inoculated into C57BL/6J mice. After seven days, mice with measurable tumors (~100 mm3) were randomly treated with or without anti-PD1 in vivo (100 μg per dose, i.p., every three days, n=8). F, Tumor growth curve of mice with B16F10 tumors treated with LD4172 and/or anti-PD1 (n=8). C57B6/J mice were subcutaneously inoculated with 3×10^5 B16F10 tumor cells. After seven days (tumor size ~ 100 mm3), mice were treated every three days with anti- PD1 (100 μg per dose, i.p.), daily with LD4172 (20 mg/kg, i.p.), a combination of LD4172 and anti-PD1 (same dose as their individual doses), or their corresponding vehicle control. G, Kaplan-Meier survival curve for all experimental groups. H, Final tumor weight (g) from F after 22d of treatment (n=8). I, Representative images of B16F10 tumors collected at the end of treatment. J, Mouse body weight (n=8). K, Tumor growth curve of mice with B16F10 tumors treated with T2I and/or anti-PD1 (n=8). The experimental conditions and treatment regimens were the same as F except using the RIPK1 kinase inhibitor T2I (20 mg/kg, i.p.) to replace LD4172. Representative data from at least three independent experiments are shown. Data are expressed as the mean ± SEM. * p<0.05; ** p<0.01; *** p<0.001, **** p<0.0001, respectively. ns, indicates no statistical significance.
To establish a syngeneic mouse model, 3× 10^5 B16F10 cells resuspended in PBS were mixed 1:1 by volume with Matrigel (354262, Corning) and subcutaneously injected into the right flank of seven-week-old wild-type female C57BL/6J mice on day 0. Treatments were started on day 7 when the tumor volume reached approximately 100 mm^3. Antibodies were administered in 100μL volumes and injected intraperitoneally every three days for the following: anti-PD1 (100 μg, BE0146, BioXcell) and anti-CD8 (500 μg, BE0004, BioXcell). The RIPK1 degrader LD4172 and RIPK1 kinase inhibitor T2I were delivered in 200 μL of vehicle solution (30% PEG400, 5% Tween-80, 5% DMSO) once daily (20 mg/kg, i.p. injection). […] Tumors were measured every three days beginning on day 7 after the challenge until death. […]

With CCn1cc(-c2ccc3c(c2)CCN3C(=O)Cc2cccc(OC(F)(F)F)c2)c2c(N)ncnc21 [T2I, reference compound] the “cell death / apoptosis in combination with TNFα” value [1] was “did not trigger TNFα-mediated apoptosis” and the “tumor response in combination with anti-PD1” value [2] was “failed to sensitize B16F10 tumors to anti-PD1 treatment”.
